We go through 20 compounds from US20260042753A1 (Merck Patent GmbH, priority 2019, published 2026).

Structures are written as SMILES.

Assay [1] has as its target c-Kit(V654A) (Homo sapiens, UniProt P10721, V654A). The experiment in a line: c-Kit(V654A) assay. It counts as biochemical. The following applies: Table 1; 200 μM ATP. The method in brief: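 Radiometric filter-binding read-out: after 3% phosphoric acid stop, peptide-incorporated 33P on filtermat scintillation-counted. Enzyme: human c-Kit V654A, residues 544–end, N-terminal GST fusion.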

The target in assay [2] is mutant cKIT (560-576 and V654A) in GIST430/654 cell line (Homo sapiens (Human), UniProt P10721, DEL560-576/V654A). The experiment in a line: Cellular testing of cKIT mutant inhibitors: phospho-Y307-cKIT Luminex assay in GIST430/654 cells. In kind it is cell-based. The following applies: Table 1; cKIT autophosphorylation, compounds 45 min; read-out: GIST 430/654 IC50. A digest of the protocol:
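GIST430/654 cells carrying constitutively active cKIT (Δ560-576/V654A) were grown with 100 nM imatinib, then treated with serially diluted compound for 45 min. Lysates were captured on anti-total-cKIT Luminex beads overnight at 4 °C and probed for phospho-Y307-cKIT. IC50 was fitted from percent of 0.3% DMSO control.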

mutant cKIT (560-576 and V654A) in GIST430/654 cell line, sequence (P10721 other isoform, or with tags, fused parts or gaps V654A/del 1-25/del 560-576 limits assumed): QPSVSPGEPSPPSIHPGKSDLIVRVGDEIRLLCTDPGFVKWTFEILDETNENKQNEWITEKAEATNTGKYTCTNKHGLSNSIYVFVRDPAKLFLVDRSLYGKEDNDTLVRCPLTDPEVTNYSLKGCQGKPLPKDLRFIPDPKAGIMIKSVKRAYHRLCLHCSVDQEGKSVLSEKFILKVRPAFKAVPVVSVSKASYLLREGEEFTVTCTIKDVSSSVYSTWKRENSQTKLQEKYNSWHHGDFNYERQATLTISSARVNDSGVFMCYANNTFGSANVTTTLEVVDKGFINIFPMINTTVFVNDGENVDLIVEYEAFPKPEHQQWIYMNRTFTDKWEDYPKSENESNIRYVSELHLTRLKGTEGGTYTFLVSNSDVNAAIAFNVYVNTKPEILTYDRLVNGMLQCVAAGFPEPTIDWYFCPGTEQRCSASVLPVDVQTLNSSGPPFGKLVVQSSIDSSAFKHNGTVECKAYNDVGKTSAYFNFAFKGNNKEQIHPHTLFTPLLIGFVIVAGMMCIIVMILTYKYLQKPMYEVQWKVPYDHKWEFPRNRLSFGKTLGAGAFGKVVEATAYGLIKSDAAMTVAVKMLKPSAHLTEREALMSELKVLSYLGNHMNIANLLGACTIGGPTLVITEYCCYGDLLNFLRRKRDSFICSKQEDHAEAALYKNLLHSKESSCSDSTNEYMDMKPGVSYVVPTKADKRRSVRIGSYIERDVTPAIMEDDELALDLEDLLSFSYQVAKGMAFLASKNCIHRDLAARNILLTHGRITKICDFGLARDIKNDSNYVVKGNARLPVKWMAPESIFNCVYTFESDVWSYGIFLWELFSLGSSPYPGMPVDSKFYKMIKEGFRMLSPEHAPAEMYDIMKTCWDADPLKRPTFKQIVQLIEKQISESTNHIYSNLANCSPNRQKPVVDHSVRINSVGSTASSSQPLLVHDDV

`COCCOc1cc2[nH]nc(-c3cc(-c4ccc(C(=O)N5CCN(C)CC5)cc4)no3)c2cc1Cl` [A167, (4-{5-[5-chloro-6-(2-methoxy-ethoxy)-1H-indazol-3-yl]-isoxazol-3-yl}-phenyl)-(4-methyl-piperazin-1-yl)-methanone]: the results for the IC50 in assay [1] and in assay [2] were 0.4 nM and 74 nM, respectively.

Consider `COCCOc1cc2[nH]nc(-c3cc(-c4ccc(C(=O)N5CC(N6CCOCC6)C5)c(F)c4)no3)c2cc1F` [A168, (2-fluoro-4-{5-[5-fluoro-6-(2-methoxy-ethoxy)-1H-indazol-3-yl]-isoxazol-3-yl}-phenyl)-(3-morpholin-4-yl-azetidin-1-yl)-methanone], for which the IC50 was 3.3 nM in assay [1] and 49 nM in assay [2].

As for `COCCOc1cc2[nH]nc(-c3cc(-c4ccc(C(=O)N5CCC56COC6)c(C)c4)no3)c2cc1F` [A169, (4-{5-[5-fluoro-6-(2-methoxy-ethoxy)-1H-indazol-3-yl]-isoxazol-3-yl}-2-methyl-phenyl)-(6-oxa-1-aza-spiro[3.3]hept-1-yl)-methanone], the IC50 was found to be 1.2 nM in assay [1] and 44 nM in assay [2].

Regarding `COCCOc1cc2[nH]nc(-c3cc(-c4ccc(C(=O)N5CCC56COC6)c(F)c4)no3)c2cc1F` [A170, (2-fluoro-4-{5-[5-fluoro-6-(2-methoxy-ethoxy)-1H-indazol-3-yl]-isoxazol-3-yl}-phenyl)-(6-oxa-1-aza-spiro[3.3]hept-1-yl)-methanone], the IC50 in assay [1] was 2.6 nM; in assay [2], 120 nM.

For `COCCOc1cc2[nH]nc(-c3cc(-c4ccc(C(=O)N5CC(N6CCOCC6)C5)c(C)c4)no3)c2cc1F` [A171, (4-{5-[5-fluoro-6-(2-methoxy-ethoxy)-1H-indazol-3-yl]-isoxazol-3-yl}-2-methyl-phenyl)-(3-morpholin-4-yl-azetidin-1-yl)-methanone], the results for the IC50 in assay [1] and in assay [2] were 1.4 nM and 63 nM, respectively.

For `COCCOc1cc2[nH]nc(-c3cc(-c4ccc(C(=O)N5CC(c6ccncn6)C5)cc4)no3)c2cc1F` [A172, 5-fluoro-6-(2-methoxyethoxy)-3-(3-{4-[3-(pyrimidin-4-yl)azetidine-1-carbonyl]phenyl}-1,2-oxazol-5-yl)-1H-indazole], the figures for the IC50 in assay [1] and in assay [2] were 0.89 nM and 54 nM, respectively.

With `COCCOc1cc2[nH]nc(-c3cc(-c4ccc(C(=O)N5CC(c6ccnc(C)n6)C5)cc4)no3)c2cc1F` [A173, 5-fluoro-6-(2-methoxyethoxy)-3-(3-{4-[3-(2-methylpyrimidin-4-yl)azetidine-1-carbonyl]phenyl}-1,2-oxazol-5-yl)-1H-indazole], the IC50 amounted to 1.1 nM in assay [1] and 30 nM in assay [2].

For `COCCOc1cc2[nH]nc(-c3cc(-c4ccc(C(=O)N5CCN(C6COC6)CC5C)cc4)no3)c2cc1F` (stereo not shown) [A174, 5-fluoro-6-(2-methoxyethoxy)-3-(3-{4-[2-methyl-4-(oxetan-3-yl)piperazine-1-carbonyl]phenyl}-1,2-oxazol-5-yl)-1H-indazole], the results for the IC50 in assay [1] and in assay [2] were 1.3 nM and 35 nM, respectively.

For the compound `COCCOc1cc2[nH]nc(-c3cc(-c4ccc(C(=O)N5CCN(C6CCOC6)CC5)cc4)no3)c2cc1F` (stereo not shown) [A175, 5-fluoro-6-(2-methoxyethoxy)-3-(3-{4-[4-(oxolan-3-yl)piperazine-1-carbonyl]phenyl}-1,2-oxazol-5-yl)-1H-indazole], the values for the IC50 in assay [1] and in assay [2] were 0.86 nM and 43 nM, respectively.

As to `COCCOc1cc2[nH]nc(-c3cc(-c4ccc(C(=O)N5CCC6(CC5)CN(C)C6)cc4)no3)c2cc1F` [A176, 7-(4-{5-[5-fluoro-6-(2-methoxyethoxy)-1H-indazol-3-yl]-1,2-oxazol-3-yl}benzoyl)-2-methyl-2,7-diazaspiro[3.5]nonane], the values for the IC50 in assay [1] and in assay [2] were 2.6 nM and 320 nM, respectively.

As to `COCCOc1cc2[nH]nc(-c3cc(-c4ccc(C(=O)N5CC(N6CCCCC6)C5)cc4)no3)c2cc1F` [A177, 5-fluoro-6-(2-methoxyethoxy)-3-(3-{4-[3-(piperidin-1-yl)azetidine-1-carbonyl]phenyl}-1,2-oxazol-5-yl)-1H-indazole], the results for the IC50 in assay [1] and in assay [2] were 1 nM and 65 nM, respectively.

In the case of `COCCOc1cc2[nH]nc(-c3cc(-c4ccc(C(=O)N5CC(N6CCCC6)C5)cc4)no3)c2cc1F` [A178, 5-fluoro-6-(2-methoxyethoxy)-3-(3-{4-[3-(pyrrolidin-1-yl)azetidine-1-carbonyl]phenyl}-1,2-oxazol-5-yl)-1H-indazole], the IC50 came out at 1.1 nM in assay [1] and 62 nM in assay [2].

On to `COCCOc1cc2[nH]nc(-c3cc(-c4ccc(C(=O)N5CCN(CC6CC6)CC5)cc4)no3)c2cc1F` [A179, 3-(3-{4-[4-(cyclopropylmethyl)piperazine-1-carbonyl]phenyl}-1,2-oxazol-5-yl)-5-fluoro-6-(2-methoxyethoxy)-1H-indazole], for which the values for the IC50 in assay [1] and in assay [2] were 0.59 nM and 85 nM, respectively.

Consider `COCCOc1cc2[nH]nc(-c3cc(-c4ccc(C(=O)N5CCO[C@H](C)C5)cc4)no3)c2cc1F` [A180, 5-fluoro-6-(2-methoxyethoxy)-3-(3-{4-[(2R)-2-methylmorpholine-4-carbonyl]phenyl}-1,2-oxazol-5-yl)-1H-indazole], for which the IC50 was 2 nM in assay [1] and 66 nM in assay [2].

As to `COCCOc1cc2[nH]nc(-c3cc(-c4ccc(C(=O)N5CC(C)(N(C)C)C5)cc4)no3)c2cc1F` [A181, 1-(4-{5-[5-fluoro-6-(2-methoxyethoxy)-1H-indazol-3-yl]-1,2-oxazol-3-yl}benzoyl)-N,N,3-trimethylazetidin-3-amine], the IC50 in assay [1] is 1 nM; in assay [2] it was 40 nM.

For the compound `COCCOc1cc2[nH]nc(-c3cc(-c4ccc(C(=O)N5C6COCC5C6)cc4)no3)c2cc1F` [A182, 5-fluoro-6-(2-methoxyethoxy)-3-[3-(4-{3-oxa-6-azabicyclo[3.1.1]heptane-6-carbonyl}phenyl)-1,2-oxazol-5-yl]-1H-indazole], the IC50 was 0.94 nM in assay [1] and 38 nM in assay [2].

Take `COCCOc1cc2[nH]nc(-c3cc(-c4ccc(C(=O)N5Cc6ccncc6C5)cc4)no3)c2cc1F` [A183, 5-fluoro-6-(2-methoxyethoxy)-3-[3-(4-{1H,2H,3H-pyrrolo[3,4-c]pyridine-2-carbonyl}phenyl)-1,2-oxazol-5-yl]-1H-indazole]: the values for the IC50 in assay [1] and in assay [2] were 0.55 nM and 18 nM, respectively.

Take `COCCOc1cc2[nH]nc(-c3cc(-c4ccc(C(=O)N5CCOC[C@@H]5CS(C)(=O)=O)cc4)no3)c2cc1F` [A184, (4-{5-[5-fluoro-6-(2-methoxy-ethoxy)-1H-indazol-3-yl]-isoxazol-3-yl}-phenyl)-((R)-3-methanesulfonylmethyl-morpholin-4-yl)-methanone]: the IC50 in assay [1] came to 1.1 nM; in assay [2], 120 nM.

On to `COCCOc1cc2[nH]nc(-c3cc(-c4ccc(C(=O)N5CCN([C@@H]6CCOC6)CC5)cc4)no3)c2cc1F` [A185, 5-fluoro-6-(2-methoxyethoxy)-3-[3-(4-{4-[(3R)-oxolan-3-yl]piperazine-1-carbonyl}phenyl)-1,2-oxazol-5-yl]-1H-indazole], for which the IC50 was 1.1 nM in assay [1] and 60 nM in assay [2].

For `COCCOc1cc2[nH]nc(-c3cc(-c4ccc(C(=O)N5CCN([C@H]6CCOC6)CC5)cc4)no3)c2cc1F` [A186, 5-fluoro-6-(2-methoxyethoxy)-3-[3-(4-{4-[(3S)-oxolan-3-yl]piperazine-1-carbonyl}phenyl)-1,2-oxazol-5-yl]-1H-indazole], the IC50 in assay [1] worked out at 1.1 nM; in assay [2], 48 nM.
